Results on 27 molecules are retold here after patent publication US11731976B2, “3-(ethoxydifluoromethyl)-6-(5-fluoro-6-(2,2,2-trifluoroethoxy)pyridin-3-yl)-[1,2,4]triazolo[4,3-a]pyridine as an ion channel modulator” (Praxis Precision Medicines, Inc., priority 2018, dated 2023).

T1 sequence (Q9UQD0 whole entry): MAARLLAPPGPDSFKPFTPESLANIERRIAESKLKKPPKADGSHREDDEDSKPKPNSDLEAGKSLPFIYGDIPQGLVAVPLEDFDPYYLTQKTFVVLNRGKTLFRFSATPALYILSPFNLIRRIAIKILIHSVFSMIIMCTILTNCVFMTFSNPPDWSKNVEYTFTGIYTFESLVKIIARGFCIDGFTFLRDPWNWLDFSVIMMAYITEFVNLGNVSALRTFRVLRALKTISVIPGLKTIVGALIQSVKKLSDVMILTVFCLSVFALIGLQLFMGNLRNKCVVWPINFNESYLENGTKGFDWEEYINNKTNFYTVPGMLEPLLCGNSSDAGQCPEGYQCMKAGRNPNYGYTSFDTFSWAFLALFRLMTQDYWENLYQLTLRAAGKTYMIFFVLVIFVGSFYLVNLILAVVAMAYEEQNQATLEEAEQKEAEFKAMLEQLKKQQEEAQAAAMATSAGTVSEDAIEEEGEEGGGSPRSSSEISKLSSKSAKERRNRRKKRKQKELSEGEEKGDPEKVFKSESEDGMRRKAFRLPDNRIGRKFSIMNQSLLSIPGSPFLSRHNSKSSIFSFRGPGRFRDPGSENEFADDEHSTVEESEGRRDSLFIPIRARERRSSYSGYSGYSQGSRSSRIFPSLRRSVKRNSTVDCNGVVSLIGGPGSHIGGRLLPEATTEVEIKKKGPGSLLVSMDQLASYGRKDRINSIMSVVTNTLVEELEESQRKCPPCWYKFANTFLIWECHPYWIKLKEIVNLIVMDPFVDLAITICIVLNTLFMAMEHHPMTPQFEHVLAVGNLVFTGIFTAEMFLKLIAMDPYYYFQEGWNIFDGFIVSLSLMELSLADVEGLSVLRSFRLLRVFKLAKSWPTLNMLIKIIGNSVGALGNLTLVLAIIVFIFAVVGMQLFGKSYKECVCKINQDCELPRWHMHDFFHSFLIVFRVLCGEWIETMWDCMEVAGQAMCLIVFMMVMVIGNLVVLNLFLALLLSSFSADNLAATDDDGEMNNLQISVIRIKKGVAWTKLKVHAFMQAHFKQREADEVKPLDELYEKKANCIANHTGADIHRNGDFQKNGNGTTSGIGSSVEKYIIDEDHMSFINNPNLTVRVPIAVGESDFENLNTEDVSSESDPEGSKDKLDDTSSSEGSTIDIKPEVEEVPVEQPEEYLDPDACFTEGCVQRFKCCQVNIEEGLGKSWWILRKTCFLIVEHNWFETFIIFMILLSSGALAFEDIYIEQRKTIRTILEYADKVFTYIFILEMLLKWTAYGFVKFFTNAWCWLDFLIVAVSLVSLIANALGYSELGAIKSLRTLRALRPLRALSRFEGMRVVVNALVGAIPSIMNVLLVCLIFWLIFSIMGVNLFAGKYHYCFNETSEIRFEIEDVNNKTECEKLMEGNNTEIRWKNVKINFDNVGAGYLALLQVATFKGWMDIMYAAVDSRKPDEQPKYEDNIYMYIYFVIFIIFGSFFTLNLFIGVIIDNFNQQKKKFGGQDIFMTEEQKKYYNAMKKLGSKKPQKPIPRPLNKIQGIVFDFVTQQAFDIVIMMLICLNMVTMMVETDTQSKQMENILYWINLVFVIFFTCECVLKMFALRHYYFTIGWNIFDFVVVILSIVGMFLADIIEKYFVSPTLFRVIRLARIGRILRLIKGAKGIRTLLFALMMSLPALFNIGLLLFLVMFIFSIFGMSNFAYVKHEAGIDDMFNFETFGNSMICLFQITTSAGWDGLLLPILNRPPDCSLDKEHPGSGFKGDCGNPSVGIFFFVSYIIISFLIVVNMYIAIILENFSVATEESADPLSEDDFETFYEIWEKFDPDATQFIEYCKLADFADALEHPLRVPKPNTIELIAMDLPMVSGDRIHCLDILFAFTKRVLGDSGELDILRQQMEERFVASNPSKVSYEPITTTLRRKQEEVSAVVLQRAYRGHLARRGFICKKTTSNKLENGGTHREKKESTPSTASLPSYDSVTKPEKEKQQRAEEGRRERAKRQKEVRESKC

This test concerns the target T1, human NaV1.6 (hNaV1.6) (Homo sapiens, UniProt Q9UQD0).
T1 construct: expressed in transfected cells; host or cells: HEK-293
Description: Modulation of late sodium current (INaL), PatchXpress electrophysiology, HEK-293 cells expressing hNaV1.6. Type of test: cell-based. The following applies: HEK293, late current evoked by 300 nM ATX-II, read-out: NaV 1.6 Assay Data: percent inhibition of INaL at hNaV1.6. As to the method:
Functional characterization of exemplary compounds to modulate INaL expressed by the NaV1.6 voltage-gated sodium channel was accomplished using the PatchXpress™ high throughput electrophysiology platform (Molecular Devices, Sunnyvale, Calif.). HEK-293 cells expressing recombinant, human NaV1.6 (hNaV1.6) were grown in DMEM/high-glucose Dulbecco's modified, 10% FBS, 2 mM sodium pyruvate, 10 mM HEPES and 400 μg/mL G418. Cells were grown to 50%-80% confluency prior to harvesting. Trypsinized cells were washed, allowed to recover for 1 hour and then resuspended in extracellular recording solution at a concentration of 1×10^6 cells/ml. The onboard liquid handling facility of the PatchXpress was used for dispensing cells and applying test compounds. NaV late currents were evoked by the application of 300 nM ATX-II. INaL was evoked by depolarizing pulses to 0 mV for 200 ms from a non-inactivating holding potential (e.g., −120 mV) at a frequency of 0.1 Hz. INaL amplitude and stability were determined by analyzing the mean current amplitude over the final 20 ms of the test pulse. Following steady state block with exemplary compounds (e.g., as described herein), a Na+ free solution containing an impermeant cation (e.g., Choline or NDMG) was added to confirm the identify of the sodium current. Percent steady-state inhibition of INaL was calculated as: [(INaL_compound)/(INaL_control)]*100, where INaL_compound and INaL_control represent INaL recorded in the presence or absence of compound, respectively.
For the molecule `COC(F)(F)c1nnc2cnc(-c3cnc(O[C@H](C)C(F)(F)F)c(F)c3)cn12` (racemic) [Compound 6A, 3-[difluoro(methoxy)methyl]-6-[5-fluoro-6-[rac-(1R)-2,2,2-trifluoro-1-methyl-ethoxy]-3-pyridyl]-[1,2,4]triazolo[4,3-a]pyrazine], the inhibition at 1 µM was more than 70%.
The figure for `Fc1cc(-c2ccc3nnc(C(F)(F)OCC4CC4)n3c2)cnc1OCC(F)(F)F` [Compound 1, 3-[cyclopropylmethoxy(difluoro)methyl]-6-[5-fluoro-6-(2,2,2-trifluoroethoxy)-3-pyridyl]-[1,2,4]triazolo[4,3-a]pyridine] is more than 70%; for `CC(C)COC(F)(F)c1nnc2ccc(-c3cnc(OCC(F)(F)F)c(F)c3)cn12` [Compound 2, 3-[difluoro(isobutoxy)methyl]-6-[5-fluoro-6-(2,2,2-trifluoroethoxy)-3-pyridyl]-[1,2,4]triazolo[4,3-a]pyridine] it is more than 70%; for `CC(C)OC(F)(F)c1nnc2ccc(-c3cnc(OCC(F)(F)F)c(F)c3)cn12` [Compound 4, 3-[difluoro(isopropoxy)methyl]-6-[5-fluoro-6-(2,2,2-trifluoroethoxy)-3-pyridyl]-[1,2,4]triazolo[4,3-a]pyridine] it is more than 70%.
On to `COC(F)(F)c1nnc2ccc(-c3cnc(OC(C)(C)C(F)(F)F)c(F)c3)nn12` [Compound 5, 3-[difluoro(methoxy)methyl]-6-[5-fluoro-6-(2,2,2-trifluoro-1,1-dimethyl-ethoxy)-3-pyridyl]-[1,2,4]triazolo[4,3-b]pyridazine], for which the inhibition at 1 µM was more than 70%.
The value for `COC(F)(F)c1nnc2ccc(-c3cnc(O[C@@H](C)C(F)(F)F)c(F)c3)cn12` [Compound 7, 3-[difluoro(methoxy)methyl]-6-[5-fluoro-6-[(1S)-2,2,2-trifluoro-1-methyl-ethoxy]-3-pyridyl]-[1,2,4]triazolo[4,3-a]pyridine] was more than 70%.
As to `COC(F)(F)c1nnc2ccc(-c3cnc(O[C@H](C)C(F)(F)F)c(F)c3)cn12` [Compound 8, 3-[difluoro(methoxy)methyl]-6-[5-fluoro-6-[(1R)-2,2,2-trifluoro-1-methyl-ethoxy]-3-pyridyl]-[1,2,4]triazolo[4,3-a]pyridine], the inhibition at 1 µM is more than 70%.
For `Fc1cc(-c2cn3c(C(F)(F)OCC4CC4)nnc3cn2)cnc1OCC(F)(F)F` [Compound 9, 3-[cyclopropylmethoxy(difluoro)methyl]-6-[5-fluoro-6-(2,2,2-trifluoroethoxy)-3-pyridyl]-[1,2,4]triazolo[4,3-a]pyrazine], the inhibition at 1 µM was more than 70%.
As for `COC(F)(F)c1nnc2ccc(-c3cnc(O[C@@H](C)C(F)(F)F)c(F)c3)nn12` [Compound 12, 3-[difluoro(methoxy)methyl]-6-[5-fluoro-6-[(1S)-2,2,2-trifluoro-1-methyl-ethoxy]-3-pyridyl]-[1,2,4]triazolo[4,3-b]pyridazine], the inhibition at 1 µM is more than 70%.
The figure for `COC(F)(F)c1nnc2ccc(-c3cnc(O[C@H](C)C(F)(F)F)c(F)c3)nn12` [Compound 13, 3-[difluoro(methoxy)methyl]-6-[5-fluoro-6-[(1R)-2,2,2-trifluoro-1-methyl-ethoxy]-3-pyridyl]-[1,2,4]triazolo[4,3-b]pyridazine] is more than 70%; for `Fc1cc(-c2ccc3nnc(C(F)(F)OCC4CC4)n3n2)cnc1OCC(F)(F)F` [Compound 14, 3-[cyclopropylmethoxy(difluoro)methyl]-6-[5-fluoro-6-(2,2,2-trifluoroethoxy)-3-pyridyl]-[1,2,4]triazolo[4,3-b]pyridazine] it is more than 70%.
The value for `COC(F)(F)c1nnc2cnc(-c3cnc(OC(C)(C)C(F)(F)F)c(F)c3)cn12` [Compound 15, 3-[difluoro(methoxy)methyl]-6-[5-fluoro-6-(2,2,2-trifluoro-1,1-dimethyl-ethoxy)-3-pyridyl]-[1,2,4]triazolo[4,3-a]pyrazine] was more than 70%.
The figure for `COC(F)(F)c1nnc2ccc(-c3cnc(OC4(C(F)(F)F)CCC4)c(F)c3)nn12` [Compound 17, 3-[difluoro(methoxy)methyl]-6-[5-fluoro-6-[1-(trifluoromethyl)cyclobutoxy]-3-pyridyl]-[1,2,4]triazolo[4,3-b]pyridazine] is more than 70%.
For the molecule `COC(F)(F)c1nnc2ccc(-c3cnc(OC4(C(F)(F)F)CCC4)c(F)c3)cn12` [Compound 18, 3-[difluoro(methoxy)methyl]-6-[5-fluoro-6-[1-(trifluoromethyl)cyclobutoxy]-3-pyridyl]-[1,2,4]triazolo[4,3-a]pyridine], the inhibition at 1 µM was more than 70%.
The figure for `C[C@H](Oc1ncc(-c2ccc3nnc(C(F)(F)OCC4CC4)n3c2)cc1F)C(F)(F)F` [Compound 19, 3-[cyclopropylmethoxy(difluoro)methyl]-6-[5-fluoro-6-[(1S)-2,2,2-trifluoro-1-methyl-ethoxy]-3-pyridyl]-[1,2,4]triazolo[4,3-a]pyridine] is more than 70%.
The figure for `CC(C)OC(F)(F)c1nnc2ccc(-c3cnc(O[C@@H](C)C(F)(F)F)c(F)c3)cn12` [Compound 20, 3-[difluoro(isopropoxy)methyl]-6-[5-fluoro-6-[(1S)-2,2,2-trifluoro-1-methyl-ethoxy]-3-pyridyl]-[1,2,4]triazolo[4,3-a]pyridine] is more than 70%.
The figure for `CC(C)OC(F)(F)c1nnc2ccc(-c3cnc(O[C@H](C)C(F)(F)F)c(F)c3)cn12` [Compound 21, 3-[difluoro(isopropoxy)methyl]-6-[5-fluoro-6-[(1R)-2,2,2-trifluoro-1-methyl-ethoxy]-3-pyridyl]-[1,2,4]triazolo[4,3-a]pyridine] is more than 70%.
As for `CC(C)COC(F)(F)c1nnc2ccc(-c3cnc(O[C@@H](C)C(F)(F)F)c(F)c3)cn12` [Compound 22, 3-[difluoro(isobutoxy)methyl]-6-[5-fluoro-6-[(1S)-2,2,2-trifluoro-1-methyl-ethoxy]-3-pyridyl]-[1,2,4]triazolo[4,3-a]pyridine], the inhibition at 1 µM was more than 70%.
The value for `CC(C)COC(F)(F)c1nnc2ccc(-c3cnc(O[C@H](C)C(F)(F)F)c(F)c3)cn12` [Compound 23, 3-[difluoro(isobutoxy)methyl]-6-[5-fluoro-6-[(1R)-2,2,2-trifluoro-1-methyl-ethoxy]-3-pyridyl]-[1,2,4]triazolo[4,3-a]pyridine] was more than 70%; that for `COC(F)(F)c1nnc2ccc(-c3cnc(OC(C)(C)C(F)(F)F)c(F)c3)cn12` [Compound 24, 3-[difluoro(methoxy)methyl]-6-[5-fluoro-6-(2,2,2-trifluoro-1,1-dimethyl-ethoxy)-3-pyridyl]-[1,2,4]triazolo[4,3-a]pyridine] was more than 70%; that for `C[C@@H](Oc1ncc(-c2ccc3nnc(C(F)(F)OCC4CC4)n3c2)cc1F)C(F)(F)F` [Compound 25, 3-[cyclopropylmethoxy(difluoro)methyl]-6-[5-fluoro-6-[(1R)-2,2,2-trifluoro-1-methyl-ethoxy]-3-pyridyl]-[1,2,4]triazolo[4,3-a]pyridine] was more than 70%.
The value for `CCOC(F)(F)c1nnc2cnc(-c3cnc(O[C@H](C)C(F)(F)F)c(F)c3)cn12` [Compound 26, 3-[ethoxy(difluoro)methyl]-6-[5-fluoro-6-[(1R)-2,2,2-trifluoro-1-methyl-ethoxy]-3-pyridyl]-[1,2,4]triazolo[4,3-a]pyrazine] was more than 70%; that for `COCc1nnc2ccc(-c3cnc(OC(C)(C)C(F)(F)F)c(F)c3)nn12` [Compound 27, 6-[5-fluoro-6-(2,2,2-trifluoro-1,1-dimethyl-ethoxy)-3-pyridyl]-3-(methoxymethyl)-[1,2,4]triazolo[4,3-b]pyridazine] was more than 70%.
The figure for `COCc1nnc2ccc(-c3cnc(OC(C)(C)C(F)(F)F)c(F)c3)cn12` [Compound 28, 6-[5-fluoro-6-(2,2,2-trifluoro-1,1-dimethyl-ethoxy)-3-pyridyl]-3-(methoxymethyl)-[1,2,4]triazolo[4,3-a]pyridine] is more than 70%; for `COCc1nnc2ccc(-c3cnc(OCC(F)(F)F)c(F)c3)cn12` [Compound 29, 6-[5-fluoro-6-(2,2,2-trifluoroethoxy)-3-pyridyl]-3-(methoxymethyl)-[1,2,4]triazolo[4,3-a]pyridine] it is less than 30%.
On to `COC(F)(F)c1nnc2ccc(-c3cnc(OCC(F)(F)F)c(F)c3)cn12` [Compound 30, 3-[difluoro(methoxy)methyl]-6-[5-fluoro-6-(2,2,2-trifluoroethoxy)-3-pyridyl]-[1,2,4]triazolo[4,3-a]pyridine], for which the inhibition at 1 µM was more than 70%.
With `COCc1nnc2cnc(-c3cnc(O[C@H](C)C(F)(F)F)c(F)c3)cn12` [Compound 31, 6-[5-fluoro-6-[(1R)-2,2,2-trifluoro-1-methyl-ethoxy]-3-pyridyl]-3-(methoxymethyl)-[1,2,4]triazolo[4,3-a]pyrazine], the inhibition at 1 µM is less than 30%.

As usually defined, the inhibition is the drop in the measured response relative to a control, in per cent.
